The values that follow come from patent EP4803142A2 (Kayothera Inc., priority 2021, dated 2022).

A value given as a limit tells only on which side of the number the result lay.

One test deals with T1, mALDH1a2 (Mus musculus, UniProt Q62148).
T1 construct: pET-Aldh1a2 transformed BL21-DE3 cultures; cell extracts
T1 sequence (Q62148 1-518): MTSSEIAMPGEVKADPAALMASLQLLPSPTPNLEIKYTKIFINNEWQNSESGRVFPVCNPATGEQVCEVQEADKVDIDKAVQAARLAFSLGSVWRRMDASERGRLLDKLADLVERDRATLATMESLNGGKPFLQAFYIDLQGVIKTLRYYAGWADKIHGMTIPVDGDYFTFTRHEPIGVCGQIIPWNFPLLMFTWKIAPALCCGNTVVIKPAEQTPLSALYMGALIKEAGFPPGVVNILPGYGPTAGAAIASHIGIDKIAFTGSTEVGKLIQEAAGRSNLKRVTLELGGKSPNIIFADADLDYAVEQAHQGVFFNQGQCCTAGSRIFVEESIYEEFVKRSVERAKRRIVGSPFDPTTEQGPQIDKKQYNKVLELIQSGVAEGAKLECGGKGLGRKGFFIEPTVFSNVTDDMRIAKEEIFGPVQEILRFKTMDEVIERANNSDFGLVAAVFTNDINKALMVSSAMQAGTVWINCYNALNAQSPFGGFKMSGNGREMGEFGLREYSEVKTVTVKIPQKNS
The test can be described thus: biochemical. The following applies: read-out: mAldhla2 IC50. How it is done:
(§1) Biological Example 5C. Aldh1a2 Enzyme Inhibition Assay
(§2) Cell extracts were spun at 16000 x g for 5 minutes.
(§3) Recombinant enzyme and inhibitor added immediately before assay. Reaction rate measured by resorufin fluorescence. […]
(§4) Table 3B. IC50 values (nM) for inhibition of hALDH1a2 and mALDH1a2 of selected compounds

Another test has as its target T2, hALDH1a2 (Homo sapiens, UniProt O94788).
T2 construct: pET-Aldh1a2 transformed BL21-DE3 cultures; cell extracts
T2 sequence (O94788 1-518): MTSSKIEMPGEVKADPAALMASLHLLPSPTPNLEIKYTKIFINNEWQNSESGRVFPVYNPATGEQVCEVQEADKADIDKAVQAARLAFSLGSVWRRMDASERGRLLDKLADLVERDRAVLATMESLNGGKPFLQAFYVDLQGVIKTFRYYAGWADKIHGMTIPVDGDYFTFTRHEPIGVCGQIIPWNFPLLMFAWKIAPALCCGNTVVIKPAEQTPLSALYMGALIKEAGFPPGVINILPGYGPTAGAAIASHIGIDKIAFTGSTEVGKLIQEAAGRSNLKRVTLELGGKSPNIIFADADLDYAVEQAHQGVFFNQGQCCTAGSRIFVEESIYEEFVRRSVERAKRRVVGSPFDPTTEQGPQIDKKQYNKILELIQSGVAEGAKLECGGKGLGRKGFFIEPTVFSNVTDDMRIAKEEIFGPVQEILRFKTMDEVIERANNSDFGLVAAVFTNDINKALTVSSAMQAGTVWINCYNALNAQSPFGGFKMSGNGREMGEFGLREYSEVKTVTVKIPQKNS
The test can be described thus: biochemical. The following applies: read-out: hAldhla2 IC50. On the procedure: as §1, §2, §3, §4

Turning to `CC1(C)Cc2cc(Nc3nc4ccccc4o3)ccc2NC1=O` [compound 99], the values for the IC50 on mALDH1a2 and at hALDH1a2 were 184 nM and 316 nM, respectively.
Turning to `N#Cc1cccc2ncc(Nc3ccc4c(c3)CCC(=O)N4)cc12` [compound 100], the concentration for half-maximal inhibition (IC50) at mALDH1a2 and at hALDH1a2 was above 10000 nM in each case.
For `Cc1cccc2ncc(Nc3ccc4c(c3)CCC(=O)N4)cc12` [compound 101], the IC50 (as a rule, the concentration that gives 50% inhibition) at mALDH1a2 turned out to be 935 nM; on hALDH1a2 it was 1890 nM.
Consider `O=S1(=O)CCc2cc(Nc3ccc4ccccc4n3)ccc2N1` [compound 102], for which the IC50 on mALDH1a2 and on hALDH1a2 was above 10000 nM in each case.
Take `CC1(C)Cc2cc(Nc3ccc4cnccc4c3)ccc2NC1=O` [compound 103]: the IC50 is 5000 nM at mALDH1a2 and above 10000 nM on hALDH1a2.
For the compound `CC1(C)Cc2cc(Nc3ccc4ccncc4c3)ccc2NC1=O` [compound 104], the IC50 on mALDH1a2 and at hALDH1a2 was above 10000 nM throughout.
Regarding `CC1(C)Cc2cc(NC3COc4ccccc4C3)ccc2NC1=O` (stereo not shown) [compound 105], the half-maximal inhibitory concentration (IC50) on mALDH1a2 and at hALDH1a2 was above 10000 nM throughout.
On to `CC1(C)Cc2cc(NN3CCC(c4ccccc4)C3=O)ccc2NC1=O` (stereo not shown) [compound 106], for which the half-inhibitory concentration (IC50) on mALDH1a2 and on hALDH1a2 was above 10000 nM each time.
Take `CC1(C)Cc2cc(Nc3ncc4ccccc4n3)c(F)cc2NC1=O` [compound 108]: the IC50 on mALDH1a2 was 100 nM; on hALDH1a2, 120 nM.
The matching figures for `CC1(C)Cc2cc(Nc3cnc4ccccc4n3)c(F)cc2NC1=O` [compound 109]: 45 nM and 42 nM.
On the same counts, the results for `Cc1cccc2ccc(Nc3ccc4c(c3)CC(C)(C)C(=O)N4)nc12` [compound 111] are 145 nM and 196 nM.
On the same counts, the results for `CC1(C)Cc2cc(Nc3ccc4c(Cl)cccc4n3)ccc2NC1=O` [compound 112] are 300 nM and 346 nM.
As for `Cn1ccc2nc(Nc3ccc4c(c3)CC(C)(C)C(=O)N4)ccc21` [compound 113], the concentration for half-maximal inhibition (IC50) on mALDH1a2 and at hALDH1a2 was above 10000 nM each time.
On to `CC1(C)Cc2cc(Nc3ccc4c(c3)NC(=O)CC4)ccc2NC1=O` [compound 114], for which the half-maximal inhibitory concentration (IC50) at mALDH1a2 and on hALDH1a2 was above 10000 nM throughout.
As for `CC1(C)Cc2cc(Nc3c[nH]c4ccccc4c3=O)ccc2NC1=O` [compound 115], the concentration for half-maximal inhibition (IC50) on mALDH1a2 and on hALDH1a2 was above 10000 nM each time.
As to `CC1(C)Cc2cc(Nc3nc(=O)c4ccccc4[nH]3)ccc2NC1=O` [compound 116], the half-inhibitory concentration (IC50) at mALDH1a2 came to 337 nM; at hALDH1a2 it was 305 nM.
On the same counts, the results for `CC1(C)Cc2cc(Nc3cnc4ccc(C(=O)O)cc4n3)ccc2NC1=O` [compound 118] are above 10000 nM and above 10000 nM.
On the same counts, the results for `O=C1CCc2cc(Oc3ncc4ccccc4n3)ccc2N1` [compound 119] are 10000 nM and above 10000 nM.
On the same counts, the results for `COC(=O)c1ccc2ncc(Nc3ccc4c(c3)CC(C)(C)C(=O)N4)nc2c1` [compound 120] are above 10000 nM and 10000 nM.
For `CC1(C)Cc2cc(Nc3cccc(Cl)n3)ccc2NC1=O` [compound 122], the half-inhibitory concentration (IC50) at mALDH1a2 and on hALDH1a2 was above 10000 nM in each case.
As to `CC1(C)Cc2cc(Nc3ccc(Cl)cn3)ccc2NC1=O` [compound 123], the IC50 on mALDH1a2 and at hALDH1a2 was above 10000 nM in each case.
`CC1(C)Cc2cc(Nc3cc(Cl)c(Cl)cn3)ccc2NC1=O` [compound 125]: the figures for the IC50 at mALDH1a2 and at hALDH1a2 were 4050 nM and 4490 nM, respectively.
On the same counts, the results for `O=C1CCc2cc(Nc3cnc4ccccc4n3)ncc2N1` [compound 126] are 165 nM and 214 nM.
On to `CC1(C)Cc2cc(Nc3ccc4c(n3)CCCC4=O)ccc2NC1=O` [compound 127], for which the half-maximal inhibitory concentration (IC50) was 1290 nM at mALDH1a2 and 894 nM on hALDH1a2.
As for `Cc1nc(Nc2ccc3c(c2)CC(C)(C)C(=O)N3)nc2ccccc12` [compound 132], the IC50 on mALDH1a2 amounted to 53 nM; at hALDH1a2, 71 nM.
The matching figures for `Cc1cc2ccccc2nc1Nc1ccc2c(c1)CC(C)(C)C(=O)N2` [compound 134]: 97 nM and 125 nM.
On the same counts, the results for `CC1(C)Cc2cc(Nc3c[nH]c4c(c3=O)CCCC4)ccc2NC1=O` [compound 135] are above 10000 nM and above 10000 nM.
The matching figures for `CCc1cnccc1C(=O)Nc1ccc2c(c1)C(F)(F)C(=O)N2` [compound 136]: above 10000 nM and above 10000 nM.
As to `CCc1cnccc1C(=O)Nc1ccc2c(c1)C(C)(C)C(=O)N2` [compound 137], the 50% inhibitory concentration (IC50) is above 100000 nM at mALDH1a2 and above 10000 nM on hALDH1a2.
